This passage reports remaining activity results from patent publication US20240246942A1, “KINASE INHIBITORS FOR THE TREATMENT OF NEURODEGENERATIVE DISEASES” (priority 2020, published 2024).

Holding throughout (experiment): biochemical
In assay [1] the target is T1, panel of 374 wild-type kinases (Homo sapiens, UniProt Q6PHR2).
T1 construct: purchased Reaction Biology Corporation
T1 sequence (Q6PHR2 1-472): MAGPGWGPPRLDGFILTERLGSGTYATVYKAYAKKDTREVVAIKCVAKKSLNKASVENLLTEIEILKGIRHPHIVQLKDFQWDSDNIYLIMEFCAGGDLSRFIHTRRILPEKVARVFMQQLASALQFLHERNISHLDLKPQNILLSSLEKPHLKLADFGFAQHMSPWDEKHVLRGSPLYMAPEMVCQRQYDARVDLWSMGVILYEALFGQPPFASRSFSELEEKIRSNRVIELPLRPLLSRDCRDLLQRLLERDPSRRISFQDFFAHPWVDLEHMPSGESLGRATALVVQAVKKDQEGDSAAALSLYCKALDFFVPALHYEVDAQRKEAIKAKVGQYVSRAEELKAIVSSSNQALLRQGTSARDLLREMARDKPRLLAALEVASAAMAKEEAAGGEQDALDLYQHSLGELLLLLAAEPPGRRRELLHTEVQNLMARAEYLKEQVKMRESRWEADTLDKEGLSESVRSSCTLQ
As to conditions: read-out: % Enzyme Activity (relative to DMSO controls), kinase ULK3.

Assay [2] has as its target T2, panel of 374 wild-type kinases (Homo sapiens, UniProt P51451).
T2 construct: purchased Reaction Biology Corporation
As to conditions: read-out: % Enzyme Activity (relative to DMSO controls), BLK.

For assay [3], the target named is T3, panel of 374 wild-type kinases (Homo sapiens, UniProt P36896).
T3 construct: purchased Reaction Biology Corporation
T3 sequence (P36896 24-505): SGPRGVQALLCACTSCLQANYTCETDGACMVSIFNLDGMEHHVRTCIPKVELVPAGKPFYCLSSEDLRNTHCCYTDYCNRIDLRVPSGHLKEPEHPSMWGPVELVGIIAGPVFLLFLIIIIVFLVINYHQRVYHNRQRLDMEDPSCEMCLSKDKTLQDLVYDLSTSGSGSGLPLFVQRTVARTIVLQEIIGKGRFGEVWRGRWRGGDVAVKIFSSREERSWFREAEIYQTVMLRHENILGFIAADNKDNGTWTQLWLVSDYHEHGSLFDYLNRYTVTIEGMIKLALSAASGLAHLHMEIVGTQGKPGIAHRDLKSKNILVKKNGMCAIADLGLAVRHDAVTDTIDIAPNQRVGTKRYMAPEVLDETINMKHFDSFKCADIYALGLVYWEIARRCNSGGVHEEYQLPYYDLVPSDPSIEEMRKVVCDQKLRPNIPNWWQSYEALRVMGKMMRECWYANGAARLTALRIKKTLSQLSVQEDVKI
As to conditions: read-out: % Enzyme Activity (relative to DMSO controls), ALK4/ACVR1B.

Assay [4] addresses T4, panel of 374 wild-type kinases (Homo sapiens, UniProt P43250).
T4 construct: purchased Reaction Biology Corporation
The settings on record: read-out: % Enzyme Activity (relative to DMSO controls), GRK6.

Assay [5] concerns the target T5, panel of 374 wild-type kinases (Homo sapiens, UniProt O00238).
T5 construct: purchased Reaction Biology Corporation
As to conditions: read-out: % Enzyme Activity (relative to DMSO controls), ALK6/BMPR1B.

For assay [6], the target named is T6, panel of 374 wild-type kinases (Homo sapiens, UniProt Q9H4A3).
T6 construct: purchased Reaction Biology Corporation
T6 sequence (Q9H4A3 whole entry): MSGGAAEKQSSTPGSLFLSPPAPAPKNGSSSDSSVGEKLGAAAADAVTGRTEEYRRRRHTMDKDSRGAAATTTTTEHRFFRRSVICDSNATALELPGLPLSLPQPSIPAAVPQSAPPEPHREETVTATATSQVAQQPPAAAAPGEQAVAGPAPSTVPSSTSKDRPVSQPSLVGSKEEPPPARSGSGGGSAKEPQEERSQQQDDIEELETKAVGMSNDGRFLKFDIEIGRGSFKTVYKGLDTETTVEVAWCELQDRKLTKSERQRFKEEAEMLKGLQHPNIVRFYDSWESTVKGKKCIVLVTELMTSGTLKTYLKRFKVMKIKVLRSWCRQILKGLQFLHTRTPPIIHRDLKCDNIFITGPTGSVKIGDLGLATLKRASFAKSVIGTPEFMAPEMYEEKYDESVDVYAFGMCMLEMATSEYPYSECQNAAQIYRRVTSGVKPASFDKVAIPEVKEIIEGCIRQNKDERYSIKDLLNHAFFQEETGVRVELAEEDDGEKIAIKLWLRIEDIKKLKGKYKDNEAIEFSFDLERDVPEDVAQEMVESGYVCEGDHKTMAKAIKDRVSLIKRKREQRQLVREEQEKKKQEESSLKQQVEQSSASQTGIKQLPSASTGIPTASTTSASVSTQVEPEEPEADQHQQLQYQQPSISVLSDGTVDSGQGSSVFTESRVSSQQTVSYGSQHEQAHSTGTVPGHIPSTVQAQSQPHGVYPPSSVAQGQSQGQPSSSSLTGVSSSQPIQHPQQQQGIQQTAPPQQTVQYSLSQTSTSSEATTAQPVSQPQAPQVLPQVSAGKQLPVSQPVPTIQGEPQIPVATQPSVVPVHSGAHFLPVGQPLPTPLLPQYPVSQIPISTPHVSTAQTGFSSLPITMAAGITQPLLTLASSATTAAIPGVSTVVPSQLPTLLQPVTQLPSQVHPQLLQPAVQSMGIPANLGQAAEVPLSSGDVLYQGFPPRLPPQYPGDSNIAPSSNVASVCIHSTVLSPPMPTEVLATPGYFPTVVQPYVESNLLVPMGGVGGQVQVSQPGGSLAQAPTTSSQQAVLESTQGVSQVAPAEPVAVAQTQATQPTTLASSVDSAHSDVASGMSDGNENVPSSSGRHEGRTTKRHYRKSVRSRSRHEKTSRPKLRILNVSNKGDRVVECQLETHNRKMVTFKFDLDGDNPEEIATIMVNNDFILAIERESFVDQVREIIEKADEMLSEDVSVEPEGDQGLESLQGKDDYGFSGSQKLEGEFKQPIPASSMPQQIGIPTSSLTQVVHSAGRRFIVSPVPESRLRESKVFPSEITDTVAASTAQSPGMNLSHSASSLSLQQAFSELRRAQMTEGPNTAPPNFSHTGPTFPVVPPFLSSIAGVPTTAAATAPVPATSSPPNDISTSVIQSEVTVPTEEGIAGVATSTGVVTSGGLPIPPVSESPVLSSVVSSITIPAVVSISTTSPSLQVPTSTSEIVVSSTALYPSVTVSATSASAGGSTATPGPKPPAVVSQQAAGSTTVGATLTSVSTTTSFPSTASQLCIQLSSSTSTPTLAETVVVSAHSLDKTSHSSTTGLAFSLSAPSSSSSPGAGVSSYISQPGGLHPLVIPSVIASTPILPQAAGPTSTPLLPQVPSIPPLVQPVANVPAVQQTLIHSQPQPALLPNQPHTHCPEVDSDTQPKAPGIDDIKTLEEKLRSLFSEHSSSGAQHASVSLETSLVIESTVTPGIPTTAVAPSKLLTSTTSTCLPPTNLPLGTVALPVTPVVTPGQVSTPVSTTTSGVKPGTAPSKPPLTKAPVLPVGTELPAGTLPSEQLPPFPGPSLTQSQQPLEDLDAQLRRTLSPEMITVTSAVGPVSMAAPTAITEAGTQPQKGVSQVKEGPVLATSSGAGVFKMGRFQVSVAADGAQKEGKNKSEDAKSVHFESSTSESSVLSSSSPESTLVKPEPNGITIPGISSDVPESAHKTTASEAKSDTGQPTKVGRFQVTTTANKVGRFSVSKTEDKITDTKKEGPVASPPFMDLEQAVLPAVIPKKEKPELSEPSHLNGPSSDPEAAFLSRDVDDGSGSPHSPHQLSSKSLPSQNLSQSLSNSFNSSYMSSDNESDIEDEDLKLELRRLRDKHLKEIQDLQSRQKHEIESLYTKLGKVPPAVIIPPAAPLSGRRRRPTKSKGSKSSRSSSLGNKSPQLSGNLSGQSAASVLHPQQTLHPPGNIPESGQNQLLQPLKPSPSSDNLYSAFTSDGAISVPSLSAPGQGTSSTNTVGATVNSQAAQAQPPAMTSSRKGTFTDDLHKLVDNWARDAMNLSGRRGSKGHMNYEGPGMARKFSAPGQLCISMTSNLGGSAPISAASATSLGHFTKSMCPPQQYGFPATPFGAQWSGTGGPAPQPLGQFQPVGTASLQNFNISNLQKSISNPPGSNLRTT
As to conditions: read-out: % Enzyme Activity (relative to DMSO controls), kinase WNK1.

For assay [7], the target named is T7, panel of 374 wild-type kinases (Homo sapiens, UniProt Q8TDC3).
T7 construct: purchased Reaction Biology Corporation
T7 sequence (Q8TDC3 1-778): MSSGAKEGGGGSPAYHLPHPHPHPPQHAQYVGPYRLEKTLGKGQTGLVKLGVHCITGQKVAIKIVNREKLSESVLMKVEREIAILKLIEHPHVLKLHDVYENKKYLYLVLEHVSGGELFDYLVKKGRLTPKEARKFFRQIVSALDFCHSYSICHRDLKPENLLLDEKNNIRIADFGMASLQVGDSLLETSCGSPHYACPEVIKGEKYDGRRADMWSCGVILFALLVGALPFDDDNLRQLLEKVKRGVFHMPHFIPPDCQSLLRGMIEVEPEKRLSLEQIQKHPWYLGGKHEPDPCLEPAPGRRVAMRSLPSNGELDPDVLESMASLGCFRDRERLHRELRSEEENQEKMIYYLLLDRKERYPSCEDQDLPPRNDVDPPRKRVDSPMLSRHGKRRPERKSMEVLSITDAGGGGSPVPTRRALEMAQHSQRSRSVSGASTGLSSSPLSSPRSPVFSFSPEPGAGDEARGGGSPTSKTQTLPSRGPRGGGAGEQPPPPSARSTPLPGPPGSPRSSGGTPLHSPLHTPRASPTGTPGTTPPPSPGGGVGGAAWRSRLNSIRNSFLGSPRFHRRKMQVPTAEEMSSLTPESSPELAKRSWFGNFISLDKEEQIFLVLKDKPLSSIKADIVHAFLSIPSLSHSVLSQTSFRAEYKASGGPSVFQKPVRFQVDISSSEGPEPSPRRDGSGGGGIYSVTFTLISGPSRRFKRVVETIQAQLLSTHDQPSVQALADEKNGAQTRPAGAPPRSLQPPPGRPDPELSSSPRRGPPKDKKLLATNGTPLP
The settings on record: read-out: % Enzyme Activity (relative to DMSO controls), BRSK1.

For assay [8], the target named is T8, panel of 374 wild-type kinases (Homo sapiens, UniProt P17252).
T8 construct: purchased Reaction Biology Corporation
The settings on record: read-out: % Enzyme Activity (relative to DMSO controls), kinase PKCa.

T4 sequence (P43250 whole entry): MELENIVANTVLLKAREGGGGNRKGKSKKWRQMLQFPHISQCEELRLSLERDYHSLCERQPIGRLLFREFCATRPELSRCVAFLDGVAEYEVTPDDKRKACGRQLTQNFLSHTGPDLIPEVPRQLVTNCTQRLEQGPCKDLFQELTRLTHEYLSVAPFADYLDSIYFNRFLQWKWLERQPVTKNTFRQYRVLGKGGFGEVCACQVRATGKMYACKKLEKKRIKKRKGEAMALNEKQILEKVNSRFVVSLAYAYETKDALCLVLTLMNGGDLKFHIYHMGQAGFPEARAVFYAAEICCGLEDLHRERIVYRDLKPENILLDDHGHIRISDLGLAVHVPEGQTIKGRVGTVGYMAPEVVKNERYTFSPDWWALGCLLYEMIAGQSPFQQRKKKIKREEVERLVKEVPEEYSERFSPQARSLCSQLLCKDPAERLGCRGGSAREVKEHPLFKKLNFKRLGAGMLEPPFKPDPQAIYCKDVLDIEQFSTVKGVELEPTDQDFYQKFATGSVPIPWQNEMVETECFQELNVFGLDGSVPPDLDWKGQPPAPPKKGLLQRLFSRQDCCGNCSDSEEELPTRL
T5 sequence (O00238 14-502): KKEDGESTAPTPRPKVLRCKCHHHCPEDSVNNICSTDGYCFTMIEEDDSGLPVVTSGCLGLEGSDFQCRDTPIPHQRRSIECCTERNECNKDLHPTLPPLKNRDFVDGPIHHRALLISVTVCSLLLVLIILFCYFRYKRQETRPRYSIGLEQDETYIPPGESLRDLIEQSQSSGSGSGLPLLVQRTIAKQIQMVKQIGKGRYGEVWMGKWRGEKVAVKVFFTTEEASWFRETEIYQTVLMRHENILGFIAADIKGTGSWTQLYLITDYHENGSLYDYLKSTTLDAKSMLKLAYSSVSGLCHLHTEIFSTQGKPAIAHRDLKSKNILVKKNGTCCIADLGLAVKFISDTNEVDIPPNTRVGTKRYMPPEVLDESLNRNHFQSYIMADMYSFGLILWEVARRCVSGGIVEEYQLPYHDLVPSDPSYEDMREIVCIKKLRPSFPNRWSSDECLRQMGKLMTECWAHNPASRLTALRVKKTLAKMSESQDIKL
T2 sequence (P51451 whole entry): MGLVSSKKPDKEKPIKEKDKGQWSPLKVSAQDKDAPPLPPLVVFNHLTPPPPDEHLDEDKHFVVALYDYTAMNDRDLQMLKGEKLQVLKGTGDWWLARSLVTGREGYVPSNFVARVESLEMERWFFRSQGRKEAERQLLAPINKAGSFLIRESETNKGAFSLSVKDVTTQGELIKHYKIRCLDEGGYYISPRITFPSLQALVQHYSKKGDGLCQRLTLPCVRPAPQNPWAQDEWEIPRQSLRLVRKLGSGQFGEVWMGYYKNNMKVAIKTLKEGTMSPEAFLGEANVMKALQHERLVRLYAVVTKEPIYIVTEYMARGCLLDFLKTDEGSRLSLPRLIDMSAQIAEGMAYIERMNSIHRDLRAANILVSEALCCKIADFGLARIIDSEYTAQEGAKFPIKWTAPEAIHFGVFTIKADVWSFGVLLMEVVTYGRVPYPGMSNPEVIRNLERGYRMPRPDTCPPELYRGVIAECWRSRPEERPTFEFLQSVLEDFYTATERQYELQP

Consider `O=C(Nc1cnn(-c2csc(C(=O)NC3COC3)c2)c1)Nc1ccccc1Cl` [Compound 17, 4-(4-(3-(2-chlorophenyl)ureido)-1H-pyrazol-1-yl)-N-(oxetan-3-yl)thiophene-2-carboxamide], for which the remaining activity at 5 µM in assay [1] came out at 111%; in assay [2], 79.2%; in assay [3], 124%; in assay [4], 97.9%; in assay [5] it was 109%; in assay [6], 99.7%. In addition, the remaining activity at 5 µM in assay [7] was determined as 85.5%; in assay [8], 101%.
With `O=C(Nc1cnn(-c2csc(C(=O)NC3COC3)c2)c1)Nc1c(F)cccc1Cl` [Compound 25, 4-(4-(3-(2-chloro-6-fluorophenyl)ureido)-1H-pyrazol-1-yl)-N-(oxetan-3-yl)thiophene-2-carboxamide], the remaining activity at 5 µM was determined as 76.6% in assay [1]; 96.1% in assay [2]; 82% in assay [3]; 102% in assay [4]; 114% in assay [5]; 93.3% in assay [6]. Moreover, the remaining activity at 5 µM in assay [7] was determined as 99.4%; in assay [8] it was 90.7%.
Regarding `Cc1sc(C(=O)NC2COC2)cc1-n1cc(NC(=O)Nc2c(F)cccc2Cl)cn1` [Compound 27, 4-(4-(3-(2-chloro-6-fluorophenyl)ureido)-1H-pyrazol-1-yl)-5-methyl-N-(oxetan-3-yl)thiophene-2-carboxamide], the remaining activity at 10 µM is 105% in assay [1] (10 uM); 112% in assay [2] (10 uM); 78.5% in assay [3] (10 uM); 91.5% in assay [4] (10 uM); 104% in assay [5] (10 uM); 88.9% in assay [6] (10 uM). The remaining activity at 10 µM in assay [7] (10 uM) is 87.8%; in assay [8] (10 uM), 95.9%.
